# How the values were obtained:
# 5-Lipoxygenase = molecular target: T1, 5-Lipoxygenase (Rattus norvegicus, UniProt P12527); assay: ARBL whole cell 5-lipoxygenase assay (LTB4 formation, RBL-1 cells); type: cell-based; details: A23187 stimulated; for inhibition at 10 µM: read-out: ARBL Percent inhibition of LTB4 @ 10 μM
# T1 construct: host or cells: RBL-1 (rat basophilic leukemia)
# T1 sequence (P12527 1-673): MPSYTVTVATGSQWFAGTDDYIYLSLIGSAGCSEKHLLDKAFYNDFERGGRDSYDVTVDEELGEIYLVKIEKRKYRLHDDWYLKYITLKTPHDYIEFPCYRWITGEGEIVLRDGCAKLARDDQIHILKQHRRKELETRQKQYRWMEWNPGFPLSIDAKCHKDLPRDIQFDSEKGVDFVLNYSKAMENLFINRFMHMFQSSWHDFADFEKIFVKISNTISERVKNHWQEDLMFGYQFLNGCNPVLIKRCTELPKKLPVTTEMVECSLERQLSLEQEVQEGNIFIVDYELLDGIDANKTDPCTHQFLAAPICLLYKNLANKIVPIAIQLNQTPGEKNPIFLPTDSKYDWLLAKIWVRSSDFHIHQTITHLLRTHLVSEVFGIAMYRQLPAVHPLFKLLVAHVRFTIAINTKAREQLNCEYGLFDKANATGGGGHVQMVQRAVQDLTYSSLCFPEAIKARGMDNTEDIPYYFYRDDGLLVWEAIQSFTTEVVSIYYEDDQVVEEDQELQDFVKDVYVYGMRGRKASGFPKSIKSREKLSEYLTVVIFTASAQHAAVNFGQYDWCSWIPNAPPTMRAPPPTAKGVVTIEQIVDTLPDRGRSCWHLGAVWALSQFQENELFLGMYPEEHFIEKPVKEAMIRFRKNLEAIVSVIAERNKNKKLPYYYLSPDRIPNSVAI
# Procedure: (§1) ARBL/ARBC Cell 5-Lipoxygenase and Cyclooxygenase Assays The rat basophilic leukemia cell line (RBL-1) was obtained from the American Type Culture Collection (Rockville, MD). Radioimmunoassay (RIA) kits of LTB4 and PGF2α were obtained from Amersham (Arlington Heights, IL) and Seragen (Boston, MA), respectively. RBL-1 cells are grown in suspension culture in Eagle's minimum essential medium supplemented with 12% fetal bovine serum at 37° C in an incubator supplied with air-5% carbon dioxide. Cells are harvested by centrifugation. They are washed with cold phosphate buffered saline pH 7.4 (PBS; NaCl, 7.1 g; Na2 HPO4, 1.15 g; KH2 PO4, 0.2 g; and KCl, 0.2 g/L). Cells are finally suspended in PBS containing 1.0 mM calcium at a density of 2×10^6 cells/mL. Cells are incubated with and without test agent (in DMSO) (1% DMSO is without effect on arachidonic acid metabolism) for 10 minutes at room temperature. Calcium ionophore A23187 (5 μM) is added and cells are incubated for 7 minutes at 37° C. The reaction is stopped by chilling the tubes on ice for 10 minutes. Cells are separated by centrifugation and the supernatant is stored at -20° C. Aliquots (100 μ L) are analyzed for LTB4 and PGF2α using radioimmunoassay kits as provided by the supplier. Table I contains biochemical data obtained from this whole cell assay as IC50 s which are calculated as the amount of test compound causing 50% inhibition or % of inhibition at the named micromoles (μM) of […] or PGF2α formation.
# Cyclooxygenase = assay: ARBC whole cell cyclooxygenase assay (PGF2α formation, RBL-1 cells); type: cell-based, rat; details: A23187 stimulated
# Procedure: as §1
# [1] = system: Carrageenan-induced rat foot paw edema; assay: Carrageenan-induced rat foot paw edema 2 (CFE 2) assay; type: in vivo; details: 3 mg/kg, dosed 1 hour before carrageenan, edema measured 5 hours after carrageenan
# Procedure: Carraogenan-Induced Rat Foot Paw Edema 2 (CFE 2) Assay: Protocol
# Carageenan solution (1% w/v) is prepared by dissolving 100 mg carrageenan (Marine Colloidal Div., Springfield, NJ) in 10 mL of sterile saline (0.9%) solution (Travenol). The solution is vortexed for 30 to 45 minutes. Animals are dosed with compound 1 hour before carrageenan challenge. Foot paw edema is induced by injecting 0.10 mL of the 1% carrageenan subcutaneously into the plantar portion of the right hind paw of each rat under light anesthesia. Initial foot paw volume is measured immediately following carrageenan challenge using mercury plethysmography (Buxco Electronics). Edema is measured 5 hours after carrageenan. The difference between the 5-hour and the initial paw volume is expressed as delta edema. The delta edema for each test group of animals is used to calculate the percent inhibition of edema achieved by the compound at the test dose compared with the vehicle control group. The data in Table I (the dose at which swelling is inhibited by the noted percent) is calculated by probit analysis for the dose at which percent inhibition occurs.
inhibition at 10 µM (5-Lipoxygenase) [%],"IC50 (5-Lipoxygenase; LTB4 by RIA, read-out: ARBL IC50 for LTB4 inhibition) [nM]",IC50 (Cyclooxygenase; PGF2α by RIA) [nM],Compound,ARBC Percent inhibition of PGF2α @ 10 μM (Cyclooxygenase) [%],CFE percent inhibition of edema [1] [%]
100,,,CON=C(c1cc(C(C)(C)C)c(O)c(C(C)(C)C)c1)c1cc(C)on1 [Example 14],97,
,830,60,"Cc1cc(C(=O)c2cc(C(C)(C)C)c(O)c(C(C)(C)C)c2)no1 [Example 1, [3,5-Bis(1,1-dimethylethyl)-4-hydroxyphenyl](5-methyl-3-isoxazolyl)methanon]",,37
91,,,"CC(C)(C)c1cc(C(=O)c2nccs2)cc(C(C)(C)C)c1O [Example 4, [3,5-Bis(1,1 dimethylethyl)-4-hydroxyphenyl]-2-thiazolylmethanone]",91,

# — patent US5234937A, “3,5-di-tertiary-butyl-4-hydroxphenyl oxazolyl methanones and related compounds as antiinflammatory agents” (Warner-Lambert Company, priority 1991, dated 1993)
